Experiments:
Assay type in all cases: in vivo
[1] = tested on: barnyardgrass (Echinochloa crus-galli); assay: Test G Pre-Emergence Protocol; conditions: Echinochloa crus-galli, pre-emergence, 312 h, evaluated after 13 days; for pest or weed control at 15.625 g/ha: 15.625 g ai/ha; for pest or weed control at 15.625 g/ha / pest or weed control at 250 g/ha: read-out: Barnyardgrass damage rating (100=total damage to plant; 0=no damage to plant); for pest or weed control at 62.5 g/ha: 62.5 g ai/ha, 100=total damage to plant, 0=no damage to plant, read-out: Barnyardgrass damage rating; for pest or weed control at 250 g/ha: 250 g ai/ha
Method in brief: (§1)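 Pots of seeds in standard soil were grown for one day in a glasshouse (24/16 °C day/night, 14 h light, 65% humidity), then sprayed with compound in acetone/water 50:50 with 0.5% Tween 20 at 15.625, 62.5 or 250 g/ha. Damage was scored after 13 days on a 0 (none) to 100 (total) scale.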

corn (Zea mays) [2] = assay: Test G Pre-Emergence Protocol; conditions: Zea mays, pre-emergence, 312 h, evaluated after 13 days; for plant injury at 15.625 g/ha: 15.625 g ai/ha; for plant injury at 15.625 g/ha / plant injury at 250 g/ha: read-out: Corn damage rating (100=total damage to plant; 0=no damage to plant); for plant injury at 62.5 g/ha: 62.5 g ai/ha, 100=total damage to plant, 0=no damage to plant, read-out: Corn damage rating; for plant injury at 250 g/ha: 250 g ai/ha
Method in brief: as §1

[3] = tested on: giant foxtail (Setaria faberi); assay: Test G Pre-Emergence Protocol; conditions: Setaria faberi, pre-emergence, 312 h, evaluated after 13 days; for pest or weed control at 15.625 g/ha: 15.625 g ai/ha; for pest or weed control at 15.625 g/ha / pest or weed control at 250 g/ha: read-out: Foxtail, Giant damage rating (100=total damage to plant; 0=no damage to plant); for pest or weed control at 62.5 g/ha: 62.5 g ai/ha, 100=total damage to plant, 0=no damage to plant, read-out: Foxtail, Giant damage rating; for pest or weed control at 250 g/ha: 250 g ai/ha
Method in brief: as §1

[4] = tested on: ivy-leaved morning glory (Ipomoea hederacea); assay: Test G Pre-Emergence Protocol; conditions: Ipomoea, pre-emergence, 312 h, evaluated after 13 days; for pest or weed control at 15.625 g/ha: 15.625 g ai/ha; for pest or weed control at 15.625 g/ha / pest or weed control at 250 g/ha: read-out: Morningglory, Ivy-leaved damage rating (100=total damage to plant; 0=no damage to plant); for pest or weed control at 62.5 g/ha: 62.5 g ai/ha, 100=total damage to plant, 0=no damage to plant, read-out: Morningglory, Ivy-leaved damage rating; for pest or weed control at 250 g/ha: 250 g ai/ha
Method in brief: as §1

[5] = tested on: redroot pigweed (Amaranthus retroflexus); assay: Test G Pre-Emergence Protocol; conditions: Amaranthus retroflexus, pre-emergence, 312 h, evaluated after 13 days; for pest or weed control at 15.625 g/ha: 15.625 g ai/ha; for pest or weed control at 15.625 g/ha / pest or weed control at 250 g/ha: read-out: Pigweed, Redroot damage rating (100=total damage to plant; 0=no damage to plant); for pest or weed control at 62.5 g/ha: 62.5 g ai/ha, 100=total damage to plant, 0=no damage to plant, read-out: Pigweed, Redroot damage rating; for pest or weed control at 250 g/ha: 250 g ai/ha
Method in brief: as §1

[6] = tested on: velvetleaf (Abutilon theophrasti); assay: Test G Pre-Emergence Protocol; conditions: Abutilon theophrasti, pre-emergence, 312 h, evaluated after 13 days; for pest or weed control at 15.625 g/ha: 15.625 g ai/ha; for pest or weed control at 15.625 g/ha / pest or weed control at 250 g/ha: read-out: Velvetleaf damage rating (100=total damage to plant; 0=no damage to plant); for pest or weed control at 62.5 g/ha: 62.5 g ai/ha, 100=total damage to plant, 0=no damage to plant, read-out: Velvetleaf damage rating; for pest or weed control at 250 g/ha: 250 g ai/ha
Method in brief: as §1

[7] = tested on: barnyardgrass (Echinochloa crus-galli); assay: Test G Post-Emergence Protocol; conditions: Echinochloa crus-galli, post-emergence, 312 h, read-out: Barnyardgrass damage rating; for pest or weed control at 15.625 g/ha: 15.625 g ai/ha, evaluated after 13 days (100=total damage to plant; 0=no damage to plant); for pest or weed control at 62.5 g/ha: 62.5 g ai/ha; for pest or weed control at 62.5 g/ha / pest or weed control at 250 g/ha: evaluated after 13 days, 100=total damage to plant, 0=no damage to plant; for pest or weed control at 250 g/ha: 250 g ai/ha
Method in brief: (§2)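 Scores run 0 (no damage) to 100 (total damage) and were taken 13 days after spraying. Plants had been raised in pots for 8 days under glasshouse control (24/16 °C, 14 h photoperiod, 65% humidity) and then treated at 15.625, 62.5 or 250 g/ha.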

corn (Zea mays) [8] = assay: Test G Post-Emergence Protocol; conditions: Zea mays, post-emergence, 312 h, read-out: Corn damage rating; for plant injury at 15.625 g/ha: 15.625 g ai/ha, evaluated after 13 days (100=total damage to plant; 0=no damage to plant); for plant injury at 62.5 g/ha: 62.5 g ai/ha; for plant injury at 62.5 g/ha / plant injury at 250 g/ha: evaluated after 13 days, 100=total damage to plant, 0=no damage to plant; for plant injury at 250 g/ha: 250 g ai/ha
Method in brief: as §2

[9] = tested on: giant foxtail (Setaria faberi); assay: Test G Post-Emergence Protocol; conditions: Setaria faberi, post-emergence, 312 h, read-out: Foxtail, Giant damage rating; for pest or weed control at 15.625 g/ha: 15.625 g ai/ha, evaluated after 13 days (100=total damage to plant; 0=no damage to plant); for pest or weed control at 62.5 g/ha: 62.5 g ai/ha; for pest or weed control at 62.5 g/ha / pest or weed control at 250 g/ha: evaluated after 13 days, 100=total damage to plant, 0=no damage to plant; for pest or weed control at 250 g/ha: 250 g ai/ha
Method in brief: as §2

[10] = tested on: ivy-leaved morning glory (Ipomoea hederacea); assay: Test G Post-Emergence Protocol; conditions: Ipomoea, post-emergence, 312 h, read-out: Morningglory, Ivy-leaved damage rating; for pest or weed control at 15.625 g/ha: 15.625 g ai/ha, evaluated after 13 days (100=total damage to plant; 0=no damage to plant); for pest or weed control at 62.5 g/ha: 62.5 g ai/ha; for pest or weed control at 62.5 g/ha / pest or weed control at 250 g/ha: evaluated after 13 days, 100=total damage to plant, 0=no damage to plant; for pest or weed control at 250 g/ha: 250 g ai/ha
Method in brief: as §2

[11] = tested on: redroot pigweed (Amaranthus retroflexus); assay: Test G Post-Emergence Protocol; conditions: Amaranthus retroflexus, post-emergence, 312 h, read-out: Pigweed, Redroot damage rating; for pest or weed control at 15.625 g/ha: 15.625 g ai/ha, evaluated after 13 days (100=total damage to plant; 0=no damage to plant); for pest or weed control at 62.5 g/ha: 62.5 g ai/ha; for pest or weed control at 62.5 g/ha / pest or weed control at 250 g/ha: evaluated after 13 days, 100=total damage to plant, 0=no damage to plant; for pest or weed control at 250 g/ha: 250 g ai/ha
Method in brief: as §2

[12] = tested on: velvetleaf (Abutilon theophrasti); assay: Test G Post-Emergence Protocol; conditions: Abutilon theophrasti, post-emergence, 312 h, read-out: Velvetleaf damage rating; for pest or weed control at 15.625 g/ha: 15.625 g ai/ha, evaluated after 13 days (100=total damage to plant; 0=no damage to plant); for pest or weed control at 62.5 g/ha: 62.5 g ai/ha; for pest or weed control at 62.5 g/ha / pest or weed control at 250 g/ha: evaluated after 13 days, 100=total damage to plant, 0=no damage to plant; for pest or weed control at 250 g/ha: 250 g ai/ha
Method in brief: as §2

Row | SMILES | pest or weed control at 15.625 g/ha [1] [%] | pest or weed control at 62.5 g/ha [1] [%] | pest or weed control at 250 g/ha [1] [%] | plant injury at 15.625 g/ha (corn (Zea mays) [2]) [%] | plant injury at 62.5 g/ha (corn (Zea mays) [2]) [%] | plant injury at 250 g/ha (corn (Zea mays) [2]) [%] | pest or weed control at 15.625 g/ha [3] [%] | pest or weed control at 62.5 g/ha [3] [%] | pest or weed control at 250 g/ha [3] [%] | pest or weed control at 15.625 g/ha [4] [%] | pest or weed control at 62.5 g/ha [4] [%] | pest or weed control at 250 g/ha [4] [%] | pest or weed control at 15.625 g/ha [5] [%] | pest or weed control at 62.5 g/ha [5] [%] | pest or weed control at 250 g/ha [5] [%] | pest or weed control at 15.625 g/ha [6] [%] | pest or weed control at 62.5 g/ha [6] [%] | pest or weed control at 250 g/ha [6] [%] | pest or weed control at 15.625 g/ha [7] [%] | pest or weed control at 62.5 g/ha [7] [%] | other results
1 | COc1ccc([C@@H]2CN(C)C(=O)[C@H]2C(=O)Nc2cccc(F)c2C)cc1Cl (racemic) [Compound 1793] | 20 | 70 | 90 | 0 | 20 | 40 | 30 | 90 | 90 | 0 | 0 | 10 | 0 | 0 | 0 | 0 | 0 | 30 | 30 | 70 | pest or weed control at 250 g/ha [7]: 80%; plant injury at 15.625 g/ha (corn (Zea mays) [8]): 10%; plant injury at 62.5 g/ha (corn (Zea mays) [8]): 30%; plant injury at 250 g/ha (corn (Zea mays) [8]): 50%; pest or weed control at 15.625 g/ha [9]: 70%; pest or weed control at 62.5 g/ha [9]: 80%; pest or weed control at 250 g/ha [9]: 80%; pest or weed control at 15.625 g/ha [10]: 0%; pest or weed control at 62.5 g/ha [10]: 10%; pest or weed control at 250 g/ha [10]: 70%; pest or weed control at 15.625 g/ha [11]: 0%; pest or weed control at 62.5 g/ha [11]: 0%; pest or weed control at 250 g/ha [11]: 0%; pest or weed control at 15.625 g/ha [12]: 0%; pest or weed control at 62.5 g/ha [12]: 10%; pest or weed control at 250 g/ha [12]: 30%
2 | CN1C[C@@H](c2cccc(Oc3ccc(F)cc3)c2)[C@H](C(=O)Nc2cccc(F)n2)C1=O (racemic) [Compound 1829] | 60 | 70 | 90 | 0 | 10 | 60 | 70 | 80 | 90 | 0 | 0 | 0 | 0 | 0 | 30 | 0 | 0 | 20 | 0 | 60 | pest or weed control at 250 g/ha [7]: 70%; plant injury at 15.625 g/ha (corn (Zea mays) [8]): 20%; plant injury at 62.5 g/ha (corn (Zea mays) [8]): 0%; plant injury at 250 g/ha (corn (Zea mays) [8]): 60%; pest or weed control at 15.625 g/ha [9]: 70%; pest or weed control at 62.5 g/ha [9]: 80%; pest or weed control at 250 g/ha [9]: 80%; pest or weed control at 15.625 g/ha [10]: 20%; pest or weed control at 62.5 g/ha [10]: 20%; pest or weed control at 250 g/ha [10]: 30%; pest or weed control at 15.625 g/ha [11]: 0%; pest or weed control at 62.5 g/ha [11]: 20%; pest or weed control at 250 g/ha [11]: 60%; pest or weed control at 15.625 g/ha [12]: 0%; pest or weed control at 62.5 g/ha [12]: 0%; pest or weed control at 250 g/ha [12]: 20%
3 | CN1C[C@@H](c2ccc(C(F)(F)F)cc2)[C@H](C(=O)Nc2ccncc2F)C1=O (racemic) [Compound 1652] | 0 | 0 | 0 | 0 | 0 | 10 | 0 | 10 | 30 | 0 | 0 | 0 | 0 | 0 | 0 | 0 | 0 | 0 | 0 | 20 | pest or weed control at 250 g/ha [7]: 30%; plant injury at 15.625 g/ha (corn (Zea mays) [8]): 0%; plant injury at 62.5 g/ha (corn (Zea mays) [8]): 0%; plant injury at 250 g/ha (corn (Zea mays) [8]): 0%; pest or weed control at 15.625 g/ha [9]: 0%; pest or weed control at 62.5 g/ha [9]: 20%; pest or weed control at 250 g/ha [9]: 40%; pest or weed control at 15.625 g/ha [10]: 0%; pest or weed control at 62.5 g/ha [10]: 0%; pest or weed control at 250 g/ha [10]: 0%; pest or weed control at 15.625 g/ha [11]: 0%; pest or weed control at 62.5 g/ha [11]: 0%; pest or weed control at 250 g/ha [11]: 0%; pest or weed control at 15.625 g/ha [12]: 0%; pest or weed control at 62.5 g/ha [12]: 0%; pest or weed control at 250 g/ha [12]: 0%

From patent US12077503B2, “Substituted cyclic amides and their use as herbicides” (FMC CORPORATION, priority 2015, dated 2024)
